One test addresses T1, SCD1 (Homo sapiens, UniProt O00767).
T1 construct: host or cells: S. cerevisiae ole1Δ strain (W303 pdr1Δ pdr3Δ background), plasmid pRS316 with TDH3 promoter and CYC1 terminator
T1 sequence (O00767 1-359): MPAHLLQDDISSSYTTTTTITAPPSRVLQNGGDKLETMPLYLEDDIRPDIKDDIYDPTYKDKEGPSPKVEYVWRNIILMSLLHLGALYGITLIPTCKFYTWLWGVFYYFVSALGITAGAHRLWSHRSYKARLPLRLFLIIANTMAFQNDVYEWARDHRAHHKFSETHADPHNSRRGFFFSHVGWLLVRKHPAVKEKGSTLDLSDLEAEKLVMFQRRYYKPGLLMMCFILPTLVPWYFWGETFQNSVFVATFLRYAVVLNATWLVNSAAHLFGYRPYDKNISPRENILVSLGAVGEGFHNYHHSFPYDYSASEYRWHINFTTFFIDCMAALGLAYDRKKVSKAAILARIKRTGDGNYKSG
In words: Growth inhibition of humanized yeast strain expressing SCD1 as sole desaturase. Type of test: cell-based. In a few lines:
(§1)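 Yeast ole1Δ strain (W303 pdr1Δ pdr3Δ background) carrying plasmid-borne Ole1, SCD1 or SCD5 as sole desaturase was grown in uracil-lacking media, pre-cultured in raffinose for 6 h, then seeded in galactose medium with compound in DMSO. Growth was read as OD600 after 30° C. incubation: 24 h for Ole1, 40 h for SCD1/SCD5.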

Another test concerns the target T2, SCD5 (Homo sapiens, UniProt Q86SK9).
T2 construct: host or cells: S. cerevisiae ole1Δ strain (W303 pdr1Δ pdr3Δ background), plasmid pRS316 with TDH3 promoter and CYC1 terminator
T2 sequence (Q86SK9 1-330): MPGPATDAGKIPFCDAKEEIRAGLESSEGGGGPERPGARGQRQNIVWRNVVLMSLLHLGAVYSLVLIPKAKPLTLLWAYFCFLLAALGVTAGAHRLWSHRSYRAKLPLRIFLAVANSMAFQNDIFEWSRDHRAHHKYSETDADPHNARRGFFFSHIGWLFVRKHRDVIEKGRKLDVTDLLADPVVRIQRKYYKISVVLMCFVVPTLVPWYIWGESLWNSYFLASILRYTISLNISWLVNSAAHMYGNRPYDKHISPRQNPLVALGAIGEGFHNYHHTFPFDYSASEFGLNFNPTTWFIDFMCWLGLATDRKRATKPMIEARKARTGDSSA
Kind of test: Growth inhibition of humanized yeast strain expressing SCD5 as sole desaturase. Format: cell-based. In a few lines:
as §1

The mark [1] stands for this setting: growth inhibition of humanized yeast strain expressing human SCD1.
The mark [2] stands for this setting: growth inhibition of humanized yeast strain expressing human SCD5.

The term IC50 denotes the concentration at which inhibition is half-maximal. On to `CC(C)(C)CC(=O)N1CCC(c2nc(-c3ccc4cnn(C5COC5)c4c3)no2)CC1` [Compound 617], for which the results for the concentration for half-maximal inhibition (IC50) against SCD1 (setting [1]) and against SCD5 (setting [2]) were above 45 µM and 0.121 µM, respectively.

For the compound `O=C1CC(n2ncc3ccc(-c4nc(N5CCn6c(Cl)cnc6C5)no4)cc32)C1` [Compound 953], the IC50 was above 45 µM against SCD1 (humanized yeast strain, 40 h) and 0.01 µM on SCD5 (humanized yeast strain, 40 h).

Regarding `O=C(N1CCC(c2noc(-c3ccc4cnn(C5COC5)c4c3)n2)CC1)C1(F)CCC1` [Compound 1029], the IC50 against SCD1 (humanized yeast strain, 40 h) was above 45 µM; at SCD5 (humanized yeast strain, 40 h), 0.01 µM.

`COC(=O)N1CCC(c2noc(-c3ccc4cnn(C(C)C)c4c3)n2)CC1` [Compound 629]: the values for the IC50 against SCD1 (setting [1]) and on SCD5 (setting [2]) were above 45 µM and 0.03 µM, respectively.

In the case of `O=C(C1CCC1)N1CCCN(c2noc(-c3ccc4cnn(C5COC5)c4c3)n2)CC1` [Compound 961], the IC50 against SCD1 (humanized yeast strain, 40 h) is above 45 µM; against SCD5 (humanized yeast strain, 40 h), above 45 µM.

Regarding `Cc1nn(C)c2cc(-c3noc(C4CCN(C(=O)[C@@H]5CC(=O)N(c6cccc(C#N)c6)C5)CC4(F)F)n3)ccc12` (stereo partly shown) [Compound 648], the IC50 on SCD1 (setting [1]) and on SCD5 (setting [2]) was above 45 µM each time.

On to `CC1(C(=O)N2CCC(c3noc(-c4ccnc(C5CCOC5)c4)n3)CC2)CCC1` (stereo not shown) [Compound 1179], for which the concentration for half-maximal inhibition (IC50) on SCD1 (humanized yeast strain, 40 h) was above 45 µM; against SCD5 (humanized yeast strain, 40 h) it was 0.11 µM.

As for `CC(C)(C)OC(=O)N1CCN(c2nc(-c3ccc4cn(C5COC5)nc4c3)no2)CC1` [Compound 701], the IC50 on SCD1 (setting [1]) and against SCD5 (setting [2]) was above 45 µM each time.

Regarding `CC(C)n1ncc2ccc(N3CC4(CCN(C(=O)CC(C)(C)C)CC4)C3)cc21` [Compound 632], the IC50 against SCD1 (setting [1]) and against SCD5 (setting [2]) was above 45 µM each time.

For the compound `C=Cc1nn(C(C)C)c2cc(-c3noc(C4CCN(C(=O)OC(C)(C)C)CC4)n3)ccc12` [Compound 653], the IC50 against SCD1 (setting [1]) and against SCD5 (setting [2]) was above 45 µM each time.

With `CC(C)(C)OC(=O)N1CCC(c2noc(-c3ccc4cnn(C5COC5)c4c3F)n2)CC1` [Compound 988], the IC50 was above 45 µM on SCD1 (humanized yeast strain, 40 h) and 0.024 µM on SCD5 (humanized yeast strain, 40 h).

Take `C[C@H]1C[C@@H](c2noc(-c3ccc4cnn(C5COC5)c4c3)n2)CCN1C(=O)OC(C)(C)C` [Compound 1025]: the IC50 against SCD1 (humanized yeast strain, 40 h) was above 45 µM; against SCD5 (humanized yeast strain, 40 h), 0.01 µM.

Regarding `CCC(=O)N1CCN(c2noc(-c3ccnc(NC4COC4)c3)n2)CC1` [Compound 978], the half-inhibitory concentration (IC50) against SCD1 (humanized yeast strain, 40 h) was above 45 µM; at SCD5 (humanized yeast strain, 40 h), above 45 µM.

In the case of `CC(C)(C)OC(=O)N1CCC(c2cnc(-c3ccc4cnn(C5COC5)c4c3)nc2)CC1` [Compound 985], the concentration for half-maximal inhibition (IC50) is above 45 µM at SCD1 (humanized yeast strain, 40 h) and 2.56 µM against SCD5 (humanized yeast strain, 40 h).

For `O=C(N1CCC(c2noc(-c3ccc4oc(=O)n(C5COC5)c4c3)n2)CC1)C1(F)CC1` [Compound 1131], the IC50 against SCD1 (humanized yeast strain, 40 h) is above 45 µM; against SCD5 (humanized yeast strain, 40 h), 0.207 µM.

With `CC(C)c1noc2ccc(-c3noc(C4CCN(C(=O)C5CCC5)CC4)n3)cc12` [Compound 968], the 50% inhibitory concentration (IC50) is above 45 µM against SCD1 (humanized yeast strain, 40 h) and 2.83 µM at SCD5 (humanized yeast strain, 40 h).

With `CC(C)n1ncc2ccc(-c3noc(C4CCN(C(=O)C56CCC(F)(CC5)CC6)CC4)n3)cc21` [Compound 755], the IC50 is above 45 µM against SCD1 (humanized yeast strain, 40 h) and 5.41 µM at SCD5 (humanized yeast strain, 40 h).

As for `CC(C)(C)OC(=O)N1CCC(c2nc(-c3ccn4cncc4c3)no2)CC1` [Compound 793], the IC50 was above 45 µM against SCD1 (humanized yeast strain, 40 h) and above 45 µM against SCD5 (humanized yeast strain, 40 h).

On to `CC(C)n1ncc2ccc(-c3noc(C4CCN(S(=O)(=O)C5CCCCC5)CC4)n3)cc21` [Compound 673], for which the IC50 is above 45 µM against SCD1 (setting [1]) and 33.8 µM on SCD5 (setting [2]).

Turning to `COC(=O)N1CCC(c2noc(-c3cc(F)c4cnn(C5CCOC5)c4c3)n2)CC1` (stereo not shown) [Compound 1073], the IC50 on SCD1 (humanized yeast strain, 40 h) amounted to 8.36 µM; against SCD5 (humanized yeast strain, 40 h), 0.00252 µM.

In the case of `CC(C)(C)OC(=O)N1CCN(c2nc(-c3ccc4cnn(C5COC5)c4c3)no2)CC1` [Compound 664], the figures for the half-maximal inhibitory concentration (IC50) against SCD1 (setting [1]) and at SCD5 (setting [2]) were 23.5 µM and 0.023 µM, respectively.

As for `Clc1cnc2n1CCN(c1noc(-c3ccc4cn[nH]c4c3)n1)C2` [Compound 904], the IC50 at SCD1 (humanized yeast strain, 40 h) was above 45 µM; against SCD5 (humanized yeast strain, 40 h), 7.62 µM.

Regarding `CC(C)n1ncc2ccc(-c3noc(C4CCN(C(=O)OC(C)(C)C)C=C4F)n3)cc21` (stereo not shown) [Compound 660], the half-maximal inhibitory concentration (IC50) on SCD1 (setting [1]) was above 45 µM; against SCD5 (setting [2]) it was 14.6 µM.

In the case of `CC(C)(C)OC(=O)N1CCN(c2noc(-c3cccc(C4CCOC4)c3)n2)CC1` (stereo not shown) [Compound 778], the IC50 against SCD1 (humanized yeast strain, 40 h) is above 45 µM; at SCD5 (humanized yeast strain, 40 h), 0.012 µM.

In the case of `CC(C)(C)OC(=O)N1CC(c2nc(-c3ccc4cnn(C5COC5)c4c3)no2)C1` [Compound 700], the IC50 against SCD1 (setting [1]) was above 45 µM; on SCD5 (setting [2]) it was 0.703 µM.

Regarding `COC(=O)N1CCC(c2noc(-c3ccc4cnn(C5CNC5)c4c3)n2)CC1` [Compound 948], the IC50 at SCD1 (humanized yeast strain, 40 h) is above 45 µM; at SCD5 (humanized yeast strain, 40 h) it was above 45 µM.

Consider `O=C(CC1CC1)N1CCN(c2noc(-c3ccc4cnn(C5COC5)c4c3)n2)CC1` [Compound 839], for which the IC50 against SCD1 (humanized yeast strain, 40 h) was above 45 µM; at SCD5 (humanized yeast strain, 40 h), 0.035 µM.

`CC1(OC(=O)N2CCC(c3noc(-c4ccnc(Cl)c4)n3)CC2)CC1` [Compound 1130]: the IC50 against SCD1 (humanized yeast strain, 40 h) is above 45 µM; on SCD5 (humanized yeast strain, 40 h), 9.9 µM.

As to `O=C(N1CCC(c2noc(-c3ccc4cnn(C5COC5)c4c3)n2)CC1)C12CC(C1)C2` [Compound 890], the IC50 turned out to be 22.7 µM against SCD1 (humanized yeast strain, 40 h) and 0.01 µM at SCD5 (humanized yeast strain, 40 h).

For `CC(C)C(=O)N1CCC(c2noc(N3CCc4nn(C5COC5)cc4C3)n2)CC1` [Compound 1195], the IC50 was above 45 µM on SCD1 (humanized yeast strain, 40 h) and above 45 µM on SCD5 (humanized yeast strain, 40 h).

Regarding `CC(C)(C)OC(=O)N1CC2(CC(c3noc(-c4ccc5cnn(C6COC6)c5c4)n3)C2)C1` [Compound 1020], the IC50 amounted to 14.6 µM against SCD1 (humanized yeast strain, 40 h) and 0.17 µM at SCD5 (humanized yeast strain, 40 h).

For the compound `COC(=O)N1CCN(c2noc(-c3ccc4cnn(C5COC5)c4c3)n2)CC1` [Compound 713], the IC50 against SCD1 (setting [1]) stood at 5.58 µM; against SCD5 (setting [2]) it was 0.01 µM.

As for `CN(c1cc(-c2nc(N3CCN(C(=O)OC(C)(C)C)CC3)no2)ccn1)C1COC1` [Compound 1022], the IC50 at SCD1 (humanized yeast strain, 40 h) was above 45 µM; on SCD5 (humanized yeast strain, 40 h), 0.01 µM.

Take `COC(=O)N1CCC(c2noc(-c3ccnc(OC4COC4)c3)n2)CC1` [Compound 1064]: the IC50 at SCD1 (humanized yeast strain, 40 h) is above 45 µM; against SCD5 (humanized yeast strain, 40 h), 3.44 µM.

Consider `CC1(C(=O)N2CCC(c3noc(-c4ccnc(C5CCOC5)c4)n3)CC2)CC1` (stereo not shown) [Compound 1178], for which the IC50 was above 45 µM against SCD1 (humanized yeast strain, 40 h) and 0.63 µM against SCD5 (humanized yeast strain, 40 h).

`O=C(c1ccccc1F)N1CCC(c2noc(-c3ccnc(C4CCOC4)c3)n2)CC1` (stereo not shown) [Compound 1099]: the IC50 is above 45 µM on SCD1 (humanized yeast strain, 40 h) and 1.88 µM at SCD5 (humanized yeast strain, 40 h).

For `O=C(OC1CCC1)N1CCC(c2nnc(-c3ccc4cnn(C5CCOC5)c4c3)o2)CC1` (stereo not shown) [Compound 1084], the IC50 is above 45 µM against SCD1 (humanized yeast strain, 40 h) and 0.027 µM on SCD5 (humanized yeast strain, 40 h).

For `CC(C)n1ncc2ccc(-c3noc(N4C[C@@H]5CN(C(=O)OC(C)(C)C)C[C@H]5C4)n3)cc21` [Compound 667], the half-maximal inhibitory concentration (IC50) against SCD1 (setting [1]) is above 45 µM; against SCD5 (setting [2]) it was 0.87 µM.

Turning to `Cc1nn(C)c2cc(-c3noc(C4CCN(C(=O)CNC(=O)c5cccc(F)c5)CC4(F)F)n3)ccc12` (stereo not shown) [Compound 602], the values for the half-inhibitory concentration (IC50) on SCD1 (humanized yeast strain expressing SCD1) and against SCD5 (humanized yeast strain expressing SCD5) were 15.9 µM and 2.74 µM, respectively.

On to `COC1(c2nc(-c3ccc4cnn(C(C)C)c4c3)no2)CCN(C(=O)OC(C)(C)C)CC1` [Compound 836], for which the IC50 is above 45 µM on SCD1 (humanized yeast strain, 40 h) and 1.44 µM at SCD5 (humanized yeast strain, 40 h).

Turning to `Cn1ccc(-c2cc(-c3nc(C4CCN(C(=O)OC(C)(C)C)CC4)no3)ccn2)n1` [Compound 1183], the IC50 against SCD1 (humanized yeast strain, 40 h) was above 45 µM; on SCD5 (humanized yeast strain, 40 h), above 45 µM.

The values above are taken from patent US11873298B2, “Compounds and uses thereof” (JANSSEN PHARMACEUTICA NV, priority 2017, dated 2024).
